# *1 amine or outer side, *2 acyl side, *3 side chain or, on linkers, in order; H or OH if unused. Where a SMILES comes first, the peptide text is derived from it. Bridges are numbered along the chain shown (N, C = ends). TBMB = c1c(C[*:1])cc(C[*:3])cc1C[*:2]
# Columns and labels:
# plasma kallikrein [1] = target: T1, plasma kallikrein (Homo sapiens, UniProt P03952); experiment: Activity measurement of chemically synthesized human plasma kallikrein inhibitors (residual activity, Z-Phe-Arg-AMC); format: biochemical; parameters: purchased Innovative Research (Southfiled, Mich., USA); conditions: for IC50: synthetic peptide after modification with TBMB, human plasma kallikrein 0.1 nM, read-out: IC50 (nM) Bi-cyclic peptide
# Protocol: (§1) Recombinant mouse plasma kallikrein from R&D Systems (Minneapolis, Minn., USA) with a signal peptide was proteolytically activated with 0.5 mg/ml thermolysin at 37° C. for 1 hr. […] Inhibitor hydrolysed in one binding loop was generated by incubation of TBMB modified peptide PK15 with human plasma kallikrein at a molar ration of 5:1 for 24 hours at 37° C. and subsequent heat inactivation of the enzyme at 60° C. (30 min). Apparent Ki values were calculated according to the Cheng and Prusoff equation (Cheng, Y. and Prusoff, W. H., Biochem. Pharmacol., 1973).
# as §1, with “ratio” for “ration”, “equation.” for “equation (Cheng, Y. and Prusoff, W. H., Biochem. Pharmacol., 1973).”
# plasma kallikrein [2] = target: T1, plasma kallikrein; experiment: Hydrolysis of the inhibitor on incubation with human plasma kallikrein; format: in vitro ADME; parameters: purchased Innovative Research (Southfiled, Mich., USA)
# Protocol: as §1
# as §1, with “ratio” for “ration”, “equation.” for “equation (Cheng, Y. and Prusoff, W. H., Biochem. Pharmacol., 1973).”
# [3] = test system: thrombin generation in human plasma; experiment: Contact activation in human plasma: thrombin activation time triggered by actin; format: biochemical; conditions: for thrombin formation in human plasma: 50 nM inhibitor concentration
# factor XIa = target: T2, factor XIa (Homo sapiens, UniProt P03951); experiment: Specificity measurement, factor XIa; format: biochemical; conditions: highest concentration tested 10 μM
# T2 construct: factor XIa (0.8 nM; Innovative Research, Southfiled, Mich., USA); purchased Innovative Research (Southfiled, Mich., USA)
# mouse plasma kallikrein = target: T3, mouse plasma kallikrein (Mus musculus, UniProt P26262); experiment: Specificity measurement, mouse plasma kallikrein; format: biochemical; conditions: highest concentration tested 10 μM
# T3 construct: purchased R&D Systems (Minneapolis, Minn., USA)
# Protocol: as §1
# as §1, with “ratio” for “ration”, “equation.” for “equation (Cheng, Y. and Prusoff, W. H., Biochem. Pharmacol., 1973).”
# [4] = test system: factor XIIa and plasma kallikrein in human plasma; experiment: Activation of factor XIIa and plasma kallikrein in human plasma after kaolin (H-D-Pro-Phe-Arg-pNA); format: biochemical; conditions: for IC50: human plasma, kaolin, read-out: inhibitor concentration required to reduce factor XIIa activity by 50%
# Protocol: (§2) Normal human plasma from single donors was purchased from 3H Biomedical (Uppsala, Sweden). The plasma was centrifuged at 1500×g at 20° C. for 15 minutes to obtain platelet-poor plasma (PPP). Aliquots of the PPP were stored in polypropylene tubes at −80° C. […] Activation of factor XIIa and human plasma kallikrein were measured as follows. 2 μg kaolin was added to the plasma samples, mixed well and incubated for 20 minutes at 37° C. The samples were diluted 250-fold in 50 mM Tris-Cl pH 7.8, 150 mM NaCl. Plasma kallikrein-like activity was measured with the chromogenic substrate H-D-Pro-Phe-Arg-pNA (100 μM; Bachem, Bubendorf, Switzerland) using an absorption plate reader (absorption at […]; Molecular Devices, Sunnyvale, Calif., USA).
# as §2, with “was” for “and human plasma kallikrein were”, “μg of” for “μg”, “H-D-Pro-Phe-Arg (SEQ ID No. 37)-pNA” for “H-D-Pro-Phe-Arg-pNA”, “USA). The same chromogenic substrate is also recognized and modified by plasma kallikrein.” for “USA).”
# human thrombin = target: T4, human thrombin (Homo sapiens, UniProt P00734); experiment: Specificity measurement, thrombin; format: biochemical; conditions: highest concentration tested 10 μM
# T4 construct: the activity of human thrombin (2 nM; Innovative Research, Southfiled, Mich., USA); purchased Innovative Research (Southfiled, Mich., USA)
# Chymotrypsin = Chymotrypsin (Bos taurus, UniProt P00766); conditions: reference 5; read-out: Affinity K1; cited from earlier work
# DNase II = conditions: reference 12; read-out: Affinity K1; cited from earlier work
# [5] = target: Urokinase-type plasminogen activator (uPA) (Mus musculus, UniProt P06869); conditions: reference 4; read-out: Affinity K1; cited from earlier work
# Pancreatic lipase = target: T5, Pancreatic lipase (Sus scrofa, UniProt P00591); conditions: reference 10; read-out: Affinity IC50; cited from earlier work
# T5 sequence (P00591 1-450): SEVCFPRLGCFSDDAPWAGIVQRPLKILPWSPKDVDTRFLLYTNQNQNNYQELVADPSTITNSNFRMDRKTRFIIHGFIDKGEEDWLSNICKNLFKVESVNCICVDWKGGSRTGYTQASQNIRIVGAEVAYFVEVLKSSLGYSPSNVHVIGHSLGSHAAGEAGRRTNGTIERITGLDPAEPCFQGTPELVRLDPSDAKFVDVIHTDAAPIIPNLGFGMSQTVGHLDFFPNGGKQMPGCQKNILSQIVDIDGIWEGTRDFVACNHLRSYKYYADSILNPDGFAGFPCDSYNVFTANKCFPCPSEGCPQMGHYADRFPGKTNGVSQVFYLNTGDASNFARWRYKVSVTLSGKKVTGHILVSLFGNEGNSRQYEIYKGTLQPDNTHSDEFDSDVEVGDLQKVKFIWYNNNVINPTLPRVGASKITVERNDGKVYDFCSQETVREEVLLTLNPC
# [6] = target: Urokinase-type plasminogen activator (uPA) (Homo sapiens, UniProt P00749); conditions: reference 3; read-out: Affinity K1; cited from earlier work
# Beta-lactamase = Beta-lactamase (Stenotrophomonas maltophilia, UniProt P52700); conditions: reference 11; read-out: Affinity IC50; cited from earlier work
# TF-fVII = TF-fVII (Homo sapiens, UniProt P08709); conditions: reference 6; read-out: Affinity IC50; cited from earlier work
# [7] = target: Angiotensin converting enzyme 2 (ACE2) (Homo sapiens, UniProt Q9BYF1); conditions: reference 7; read-out: Affinity K1; cited from earlier work
# ErbB-2 = ErbB-2 (Homo sapiens, UniProt P04626); conditions: reference 8; read-out: Affinity K1; cited from earlier work
# Human kallikrein 2 = Human kallikrein 2 (Homo sapiens, UniProt P20151); conditions: reference 2; read-out: Affinity IC50; cited from earlier work
# Urease = Urease (Helicobacter pylori, UniProt P14916+P69996); conditions: read-out: Affinity IC50; reference 9; cited from earlier work
# [8] = in vivo; cited from earlier work
# T1 sequence (P03952 391-638 limits assumed): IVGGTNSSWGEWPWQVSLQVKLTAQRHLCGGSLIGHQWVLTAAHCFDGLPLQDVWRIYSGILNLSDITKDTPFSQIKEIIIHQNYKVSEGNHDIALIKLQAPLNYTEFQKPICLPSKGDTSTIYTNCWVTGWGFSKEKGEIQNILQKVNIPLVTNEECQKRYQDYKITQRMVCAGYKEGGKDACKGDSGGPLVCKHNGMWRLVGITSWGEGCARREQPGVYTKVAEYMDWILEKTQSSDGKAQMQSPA
# T1 sequence (P03952 20-390 partner limits assumed): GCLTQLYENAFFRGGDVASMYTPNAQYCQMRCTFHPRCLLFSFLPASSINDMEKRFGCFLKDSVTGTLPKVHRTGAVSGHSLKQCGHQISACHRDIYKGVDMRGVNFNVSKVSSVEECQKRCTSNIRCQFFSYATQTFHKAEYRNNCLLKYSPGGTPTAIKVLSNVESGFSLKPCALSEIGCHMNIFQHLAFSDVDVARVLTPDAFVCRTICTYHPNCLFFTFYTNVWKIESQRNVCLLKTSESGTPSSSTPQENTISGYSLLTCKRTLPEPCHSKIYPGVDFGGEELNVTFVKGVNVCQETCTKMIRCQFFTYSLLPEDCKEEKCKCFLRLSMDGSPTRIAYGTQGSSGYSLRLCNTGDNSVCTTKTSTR
# Sequence of Urease (P69996 whole entry): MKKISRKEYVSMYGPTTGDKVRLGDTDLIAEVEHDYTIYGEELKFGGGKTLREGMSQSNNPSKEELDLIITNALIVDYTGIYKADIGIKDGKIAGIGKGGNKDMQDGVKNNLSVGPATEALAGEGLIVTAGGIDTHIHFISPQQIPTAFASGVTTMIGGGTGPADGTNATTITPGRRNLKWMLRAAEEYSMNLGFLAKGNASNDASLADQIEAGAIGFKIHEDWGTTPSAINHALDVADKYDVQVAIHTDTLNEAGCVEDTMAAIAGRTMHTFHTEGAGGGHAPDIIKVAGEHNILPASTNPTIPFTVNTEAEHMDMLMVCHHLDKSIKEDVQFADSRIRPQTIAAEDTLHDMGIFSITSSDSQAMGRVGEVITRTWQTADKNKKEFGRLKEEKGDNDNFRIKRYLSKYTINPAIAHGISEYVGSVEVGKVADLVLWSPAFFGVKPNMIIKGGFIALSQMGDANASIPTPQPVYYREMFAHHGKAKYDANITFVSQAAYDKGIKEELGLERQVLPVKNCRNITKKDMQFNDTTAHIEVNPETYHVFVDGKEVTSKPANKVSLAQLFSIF
# Sequence of Urease (P14916 whole entry): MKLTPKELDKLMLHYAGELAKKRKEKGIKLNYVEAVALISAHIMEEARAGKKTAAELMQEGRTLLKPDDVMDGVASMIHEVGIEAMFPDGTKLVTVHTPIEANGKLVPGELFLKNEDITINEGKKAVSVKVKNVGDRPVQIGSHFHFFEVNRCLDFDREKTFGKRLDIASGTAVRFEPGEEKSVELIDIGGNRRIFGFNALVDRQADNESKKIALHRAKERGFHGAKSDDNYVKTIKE
# Sequence of TF-fVII (P08709 213-466 limits assumed): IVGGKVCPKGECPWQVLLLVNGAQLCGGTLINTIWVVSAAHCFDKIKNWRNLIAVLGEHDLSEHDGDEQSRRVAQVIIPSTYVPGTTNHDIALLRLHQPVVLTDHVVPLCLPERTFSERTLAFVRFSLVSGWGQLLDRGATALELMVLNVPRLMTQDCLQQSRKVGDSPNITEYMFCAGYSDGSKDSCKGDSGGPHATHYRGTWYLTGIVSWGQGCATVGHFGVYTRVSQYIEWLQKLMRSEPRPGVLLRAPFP
# Sequence of TF-fVII (P08709 61-212 partner limits assumed): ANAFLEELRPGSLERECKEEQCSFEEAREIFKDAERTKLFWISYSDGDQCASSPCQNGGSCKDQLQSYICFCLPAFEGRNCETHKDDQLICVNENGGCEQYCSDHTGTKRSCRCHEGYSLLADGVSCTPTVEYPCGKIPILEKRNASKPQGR
# Sequence of TF-fVII (P13726 33-295 partner): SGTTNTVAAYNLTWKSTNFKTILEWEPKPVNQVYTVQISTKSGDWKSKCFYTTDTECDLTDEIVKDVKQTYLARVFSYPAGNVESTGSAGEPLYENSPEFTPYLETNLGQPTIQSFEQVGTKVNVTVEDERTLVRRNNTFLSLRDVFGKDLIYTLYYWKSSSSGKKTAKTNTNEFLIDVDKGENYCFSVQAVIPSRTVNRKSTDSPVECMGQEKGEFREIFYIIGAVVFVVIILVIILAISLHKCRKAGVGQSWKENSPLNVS
# Sequence of Angiotensin converting enzyme 2 (ACE2) (Q9BYF1 18-805, species assumed): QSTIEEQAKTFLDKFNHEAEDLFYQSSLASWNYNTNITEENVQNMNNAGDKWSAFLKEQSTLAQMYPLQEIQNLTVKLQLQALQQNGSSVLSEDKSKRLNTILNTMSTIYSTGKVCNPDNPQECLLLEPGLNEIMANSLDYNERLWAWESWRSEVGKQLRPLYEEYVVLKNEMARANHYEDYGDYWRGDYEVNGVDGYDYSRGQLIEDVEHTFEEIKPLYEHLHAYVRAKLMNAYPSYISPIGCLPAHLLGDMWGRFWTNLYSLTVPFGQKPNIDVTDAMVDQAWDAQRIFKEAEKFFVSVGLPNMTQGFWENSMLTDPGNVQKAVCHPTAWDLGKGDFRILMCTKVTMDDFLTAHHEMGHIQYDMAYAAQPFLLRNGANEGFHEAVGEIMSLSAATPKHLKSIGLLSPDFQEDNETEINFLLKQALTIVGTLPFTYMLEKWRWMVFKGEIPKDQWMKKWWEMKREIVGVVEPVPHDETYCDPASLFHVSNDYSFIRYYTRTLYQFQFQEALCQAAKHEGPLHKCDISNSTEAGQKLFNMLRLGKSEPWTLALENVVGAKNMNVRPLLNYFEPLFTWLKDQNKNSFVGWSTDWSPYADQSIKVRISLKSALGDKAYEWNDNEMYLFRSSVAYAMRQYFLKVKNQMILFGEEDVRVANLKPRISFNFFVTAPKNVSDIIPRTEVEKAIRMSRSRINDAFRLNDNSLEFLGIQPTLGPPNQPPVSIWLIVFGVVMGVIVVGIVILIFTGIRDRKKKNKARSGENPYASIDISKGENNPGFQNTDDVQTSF
# Sequence of Human kallikrein 2 (P20151 25-261): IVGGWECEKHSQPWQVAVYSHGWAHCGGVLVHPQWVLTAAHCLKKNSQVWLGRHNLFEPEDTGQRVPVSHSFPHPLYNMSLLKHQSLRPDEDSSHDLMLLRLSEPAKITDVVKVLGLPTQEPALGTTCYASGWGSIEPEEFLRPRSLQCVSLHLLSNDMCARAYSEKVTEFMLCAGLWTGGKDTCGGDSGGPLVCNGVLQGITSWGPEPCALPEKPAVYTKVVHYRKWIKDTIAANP
# Sequence of Beta-lactamase (P52700 34-290): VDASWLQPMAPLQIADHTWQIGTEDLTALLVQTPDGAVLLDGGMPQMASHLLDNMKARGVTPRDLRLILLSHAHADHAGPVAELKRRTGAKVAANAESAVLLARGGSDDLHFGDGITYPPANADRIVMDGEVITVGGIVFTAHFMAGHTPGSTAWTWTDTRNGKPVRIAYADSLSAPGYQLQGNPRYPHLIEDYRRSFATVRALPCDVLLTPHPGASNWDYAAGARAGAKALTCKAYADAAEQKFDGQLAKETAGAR
# T3 sequence (P26262 391-638 limits assumed): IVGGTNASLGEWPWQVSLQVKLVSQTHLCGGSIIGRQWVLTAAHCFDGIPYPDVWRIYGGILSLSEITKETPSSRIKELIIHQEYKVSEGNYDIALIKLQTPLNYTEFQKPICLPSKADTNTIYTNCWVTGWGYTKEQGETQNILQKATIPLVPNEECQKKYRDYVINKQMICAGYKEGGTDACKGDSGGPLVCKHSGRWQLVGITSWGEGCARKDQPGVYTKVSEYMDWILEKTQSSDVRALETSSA
# T3 sequence (P26262 20-390 partner limits assumed): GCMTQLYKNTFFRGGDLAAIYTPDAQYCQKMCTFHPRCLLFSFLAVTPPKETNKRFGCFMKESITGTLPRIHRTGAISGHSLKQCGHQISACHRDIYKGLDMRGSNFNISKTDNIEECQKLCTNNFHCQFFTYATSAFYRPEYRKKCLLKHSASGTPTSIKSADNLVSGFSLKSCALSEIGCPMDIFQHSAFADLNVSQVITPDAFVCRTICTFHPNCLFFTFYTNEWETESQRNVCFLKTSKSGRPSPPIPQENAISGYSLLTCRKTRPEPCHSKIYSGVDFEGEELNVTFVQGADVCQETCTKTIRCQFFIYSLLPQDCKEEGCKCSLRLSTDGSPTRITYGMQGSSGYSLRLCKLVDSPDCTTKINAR
# T2 sequence (P03951 388-625 limits assumed): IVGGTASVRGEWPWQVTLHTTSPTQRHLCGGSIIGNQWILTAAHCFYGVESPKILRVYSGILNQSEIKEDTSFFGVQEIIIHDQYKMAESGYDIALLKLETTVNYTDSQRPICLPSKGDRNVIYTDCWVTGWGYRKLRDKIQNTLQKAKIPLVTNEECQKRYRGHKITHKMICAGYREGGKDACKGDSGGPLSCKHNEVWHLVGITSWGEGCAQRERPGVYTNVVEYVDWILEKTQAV
# T2 sequence (P03951 19-387 partner limits assumed): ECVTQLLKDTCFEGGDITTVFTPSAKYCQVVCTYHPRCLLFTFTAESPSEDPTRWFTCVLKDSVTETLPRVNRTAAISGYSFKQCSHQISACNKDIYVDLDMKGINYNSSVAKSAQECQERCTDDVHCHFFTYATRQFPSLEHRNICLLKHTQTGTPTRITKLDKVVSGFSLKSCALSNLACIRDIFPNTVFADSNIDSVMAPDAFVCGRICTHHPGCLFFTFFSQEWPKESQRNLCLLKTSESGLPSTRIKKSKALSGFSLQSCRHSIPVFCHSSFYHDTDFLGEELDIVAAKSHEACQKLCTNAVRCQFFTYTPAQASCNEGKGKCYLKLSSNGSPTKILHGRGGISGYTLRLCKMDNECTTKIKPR
compound,measurement,setting,value
CC[C@H](C)[C@@H]1NC(=O)[C@H](CCC(=O)O)NC(=O)[C@H]([C@@H](C)CC)NC(=O)[C@@H]2CCCN2C(=O)[C@@H]2CSCc3cc(cc(c3)CSC[C@@H](C(=O)NCC(N)=O)NC(=O)[C@@H]3CCCN3C(=O)[C@H](Cc3ccccc3)NC1=O)CSC[C@H](NC(=O)[C@H](C)N)C(=O)N[C@@H](CO)C(=O)N[C@@H]([C@@H](C)O)C(=O)N[C@@H](CCC(=O)O)C(=O)N[C@@H](CCCNC(=N)N)C(=O)N[C@@H](CCCNC(=N)N)C(=O)N[C@@H](Cc1ccc(O)cc1)C(=O)N2 [PK4] (H-ACSTERRYCPIEIFPCG-NH2; linker 2-9-16 via TBMB),IC50,plasma kallikrein [1],33 nM
CSCC[C@@H]1NC(=O)[C@H](CC(C)C)NC(=O)[C@H](CC(=O)O)NC(=O)[C@H](CCC(=O)O)NC(=O)[C@H](Cc2ccc(O)cc2)NC(=O)[C@@H]2CSCc3cc(cc(c3)CSC[C@@H](C(=O)NCC(N)=O)NC(=O)[C@H](Cc3c[nH]c4ccccc34)NC1=O)CSC[C@H](NC(=O)[C@H](C)N)C(=O)N[C@@H](C)C(=O)N1CCC[C@H]1C(=O)N[C@@H](Cc1c[nH]c3ccccc13)C(=O)N[C@@H](CCCNC(=N)N)C(=O)N[C@@H]([C@@H](C)O)C(=O)N[C@@H](C)C(=O)N2 [PK6] (H-ACAPWRTACYEDLMWCG-NH2; linker 2-9-16 via TBMB),IC50,plasma kallikrein [1],21.2 nM
CC(C)[C@@H]1NC(=O)[C@H](CCCNC(=N)N)NC(=O)[C@@H]2CSCc3cc(cc(c3)CSC[C@@H](C(=O)NCC(N)=O)NC(=O)[C@@H]3CCCN3C(=O)[C@H]([C@@H](C)O)NC(=O)[C@H](Cc3c[nH]c4ccccc34)NC(=O)[C@H](CC(N)=O)NC1=O)CSC[C@H](NC(=O)[C@H](C)N)C(=O)NCC(=O)N[C@@H]([C@@H](C)O)C(=O)NCC(=O)N[C@@H](CCC(=O)O)C(=O)NCC(=O)N[C@@H](CCCNC(=N)N)C(=O)N2 [PK13] (H-ACGTGEGRCRVNWTPCG-NH2; linker 2-9-16 via TBMB),IC50,plasma kallikrein [1],39.1 nM
CC(C)C[C@@H]1NC(=O)[C@H](C)NC(=O)[C@H](CCC(=O)O)NC(=O)[C@H](CC(=O)O)NC(=O)[C@H](C)NC(=O)[C@@H]2CCCN2C(=O)[C@@H]2CSCc3cc(cc(c3)CSC[C@@H](C(=O)NCC(N)=O)NC1=O)CSC[C@H](NC(=O)[C@H](C)N)C(=O)N[C@@H](CO)C(=O)N[C@@H](CC(=O)O)C(=O)N[C@@H](CCCNC(=N)N)C(=O)N[C@@H](Cc1ccccc1)C(=O)N[C@@H](CCCNC(=N)N)C(=O)N[C@@H](CC(N)=O)C(=O)N2 [PK15] (H-ACSDRFRNCPADEALCG-NH2; linker 2-9-16 via TBMB (inferred)),cleavage of a peptide bond on incubation with kallikrein,plasma kallikrein [2]; 24 h at 37° C.,90%
same,state after prolonged incubation with human plasma kallikrein,plasma kallikrein [2]; cleaved in one of the loops,remained intact and active
same,thrombin formation in human plasma,[3],delayed thrombin formation
same,lag time of thrombin generation compared to control sample (FIG. 8),"[3]; 5, 50, 500 or 5000 nM",dose-dependent prolongation of lag time
same,inhibition of human factor XIa,factor XIa,did not inhibit
same,inhibition of mouse plasma kallikrein,mouse plasma kallikrein,did not inhibit
same,interruption of intrinsic coagulation pathway / contact activation in human plasma ex vivo,[4],efficiently interrupted the intrinsic coagulation pathway
same,activation of factor XIIa and plasma kallikrein in human plasma,"[4]; 5 μM, plasma of three donors",essentially be suppressed
same,IC50,[4],160 nM
same,inhibition of human thrombin,human thrombin,did not inhibit
same,Ki,plasma kallikrein [1],1.5 nM
same,IC50,plasma kallikrein [1],1.7 nM
CCFSWRCRC,Ki,Chymotrypsin,1000 nM
CLRLLQWFLWAC,Ki,DNase II,200 nM
CPAYSRYLDC,Ki,[5],400 nM
CQPHPGQTC,IC50,Pancreatic lipase,16000 nM
CSWRGLENHRMC,Ki,[6],6700 nM
CVHSPNREC,IC50,Beta-lactamase,9000 nM
EEWEVLCWTWETCER,IC50,TF-fVII,1.5 nM
GDYSHCSPLRYYPWWKCTYPDP,Ki,[7],2.8 nM
KCCYSL,Ki,ErbB-2,30000 nM
SRFKVWWAAF,IC50,Human kallikrein 2,3400 nM
YDFYWW,IC50,Urease,30000 nM
aprotinin,thrombin formation in human plasma,[3],had no effect
same,lag time of thrombin activation,[3]; 5 μM inhibitor concentration,more prolonged by aprotinin than by the small molecule inhibitor
same,adverse effects,[8],anaphylaxis and renal toxicity
same,IC50,[4],5000 nM
